In patent US11414426B2, “Treatment of skin disorders” (PIQUR THERAPEUTICS AG, priority 2017, dated 2022):
Marks after values point to notes of the source that are not given here.

Tests used:
[1] = system: pPKB S473 in A2058 cells; test: In-cell Western blot, pPKB S473; type: cell-based; conditions: Homo sapiens, A2058, 1 h, 1 hour treatment, normalized to α-tubulin
Method: (§1) Cells are fixed with 4% paraformaldehyde for 30 minutes at room temperature, washed 2 times with 1% BSA in PBS, permeabilized with 0.1% Triton X-100 in PBS/1% BSA for 30 minutes at room temperature and blocked with 5% goat serum in PBS/1% BSA/0.1% Triton X-100 for 30 minutes at room temperature. […] Cells are washed 3 times 5 minutes with PBS/1% BSA/0.1% triton and plate scanned with the Odyssey Infrared Scanning system using both 700 and 800 nm channels. […] To correct for background staining in the data analysis wells are treated only with secondary antibodies.
(§2) For data analysis the mean background signal from channel 700 nm and 800 nm are subtracted from each signal in channel 700 nm and 800 nm, respectively.
(§3) IC50 values of each compound are determined by plotting the normalized pPBK S473 and pS6 S235/S236 signals, respectively, versus the compound concentrations (in logarithmic scale) and then by fitting a sigmoidal dose-response curve with variable slope to the data using GraphPad™ Prism.

[2] = system: pS6 S235/S236 in A2058 cells; test: In-cell Western blot, pS6 S235/S236; type: cell-based; conditions: 1 hour treatment, normalized to α-tubulin
Method: as §1, §2, §3

[3] = Ex vivo pig skin penetration, formulations in 80% SBECD; type: in vitro ADME
Description: The control formulation Aldara (5% imiquimod) was applied to detect variations in skin permeability (local variability in the same animal and inter-subject variability). The stratum corneum was removed by tape stripping to avoid contamination during the biopsy extraction. […] One biopsy was taken from each control site. Additionally, 5 blank samples were taken.

[4] = Ex vivo pig skin PK profile, propylene glycol formulations; type: in vitro ADME
Description: Excised pig skin was placed in a climate chamber to control temperature and humidity. […] Before biopsies were taken the stratum corneum was removed by tape stripping and biopsies consisted of the remaining epidermis and entire dermis.

[5] = In vivo pig skin penetration; conditions: living pig, single topical application, propylene glycol preparations
[6] = molecular target: T1, N-terminally GST-tagged mTOR (truncated version: amino acids 1360-2549) (Homo sapiens, UniProt P42345); test: In vitro mTOR binding assay (LanthaScreen TR-FRET); conditions: 10 nM Tracer 314, 30 min RT
T1 construct: truncated version: amino acids 1360-2549; purchased Life Technologies PR8683B
T1 sequence (P42345 1360-2549): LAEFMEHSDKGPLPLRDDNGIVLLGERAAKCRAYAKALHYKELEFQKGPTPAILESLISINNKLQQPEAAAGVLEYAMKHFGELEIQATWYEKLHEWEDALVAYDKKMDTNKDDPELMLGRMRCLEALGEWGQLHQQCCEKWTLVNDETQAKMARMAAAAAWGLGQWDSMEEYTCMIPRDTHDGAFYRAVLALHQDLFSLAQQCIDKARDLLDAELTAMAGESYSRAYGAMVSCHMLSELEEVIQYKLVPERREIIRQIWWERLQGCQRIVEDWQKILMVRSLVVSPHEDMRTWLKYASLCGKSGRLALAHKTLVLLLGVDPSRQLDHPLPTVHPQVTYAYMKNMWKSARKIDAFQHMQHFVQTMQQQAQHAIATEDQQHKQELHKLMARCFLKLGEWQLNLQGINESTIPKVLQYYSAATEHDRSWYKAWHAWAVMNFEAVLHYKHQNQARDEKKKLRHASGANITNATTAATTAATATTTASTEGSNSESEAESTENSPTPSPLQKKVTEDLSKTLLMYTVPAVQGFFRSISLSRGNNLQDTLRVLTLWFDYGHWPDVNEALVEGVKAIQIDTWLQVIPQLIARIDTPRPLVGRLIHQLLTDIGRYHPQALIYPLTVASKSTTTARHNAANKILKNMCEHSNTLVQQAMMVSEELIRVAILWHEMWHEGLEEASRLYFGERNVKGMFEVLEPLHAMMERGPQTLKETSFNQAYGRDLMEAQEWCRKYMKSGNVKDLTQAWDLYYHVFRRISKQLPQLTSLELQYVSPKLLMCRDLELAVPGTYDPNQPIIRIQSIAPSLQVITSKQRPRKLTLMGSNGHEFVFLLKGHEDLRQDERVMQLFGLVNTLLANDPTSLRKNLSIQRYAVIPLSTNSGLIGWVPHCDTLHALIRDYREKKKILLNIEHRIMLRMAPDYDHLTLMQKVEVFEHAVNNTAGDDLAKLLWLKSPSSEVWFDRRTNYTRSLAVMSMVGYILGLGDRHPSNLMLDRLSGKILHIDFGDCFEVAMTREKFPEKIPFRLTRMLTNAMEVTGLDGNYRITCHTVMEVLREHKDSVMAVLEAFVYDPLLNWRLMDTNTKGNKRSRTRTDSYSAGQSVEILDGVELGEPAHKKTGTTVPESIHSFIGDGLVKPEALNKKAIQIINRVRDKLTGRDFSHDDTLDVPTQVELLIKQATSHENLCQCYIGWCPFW
Method: In Vitro mTOR Binding Assay
A 10-point 4-fold serial dilution (highest concentration at 10 μmol/L and lowest concentration at 40 pmol/L) of each compound was tested for mTOR binding in duplicate in a 384-well plate. […] After 30 min incubation at RT, time-resolved FRET was measured with a Synergy 4 multi-mode microplate reader (Biotek Instruments) using the following settings: 100 microsecs delay before data collection, 200 microsecs time for data collection, 10 measurements per data point.
IC50 values of each compound were determined by plotting the emission ratio versus the compound concentrations (in logarithmic scale) and then by fitting a sigmoidal dose-response curve with variable slope to the data using GraphPad™ Prism.

[7] = Stress stability in propyleneglycol at 60° C. (HPLC); type: physicochemical; conditions: 1% in propyleneglycol, 72 h
Method: The fraction of residual test item was determined by HPLC. […] During the observation period of 72 hrs.
Equal concentrations (1%) of the test items in propyleneglycol were heated to 60° C. and the fraction of residual test item was determined by HPLC.

Q: For `Nc1cc(C(F)(F)F)c(-c2cc(N3CCOCC3)nc(N3CCOCC3)n2)cn1` [BKM 120], which IC50 [1] is on record?
A: Its IC50 is 0.39 µM.

Q: And the IC50 [2]?
A: The IC50 was 0.64 µM.

Q: What does the source list for `Nc1cc(C(F)F)c(-c2nc(N3C4CCC3COC4)nc(N3C4CCC3COC4)n2)cn1` [Compound 3, 5-(4-(3-oxa-8-azabicyclo[3.2.1]octan-8-yl)-6-(3-oxa-8-azabicyclo[3.2.1]octan-8-yl)-1,3,5-triazin-2-yl)-4-(difluoromethyl)pyridin-2-amine]?
A: intrinsic penetration properties in comparison with Aldara (5% imiquimod) ([3]; ex vivo pig skin): slightly lower; penetration into pig skin (lower epidermis and dermis) ([3]; ex vivo, 1% experimental formulations, 80% SBECD): penetrated into pig skin (lower epidermis and dermis) to a significant extent; skin concentration / skin PK profile ([4]; 1% in 100% PG): comparable to 1*; drug concentrations in the lower epidermis and dermis ([4]; 1% preparations containing propylene glycol, vs Aldara): high drug concentrations in the lower epidermis and dermis; levels in epidermis and dermis after tape stripping [5]: significant levels

Q: For `C[C@H]1COCCN1c1nc(-c2cnc(N)cc2C(F)F)nc(N2CCOC[C@@H]2C)n1` [Compound 6], which IC50 [6] is on record?
A: Its IC50 is 0.023 µM.

Q: Which “degraded (fraction of test item lost, HPLC)” value [7] does the source give for `CO[C@H]1C[C@@H]2CC[C@@H](C)[C@@](O)(O2)C(=O)C(=O)N2CCCC[C@H]2C(=O)O[C@H]([C@H](C)C[C@@H]2CC[C@@H](O)[C@H](OC)C2)CC(=O)[C@H](C)/C=C(\C)[C@@H](O)[C@@H](OC)C(=O)[C@H](C)C[C@H](C)/C=C/C=C/C=C/1C` [Sirolimus] here?
A: The value was 39%.
